In patent publication US8557839B2, “Fused ring azadecalin glucocorticoid receptor modulators” (Corcept Therapeutics, Inc., priority 2004, dated 2013) one finds Ki data, which are given here for 40 compounds.

SMILES strings stand for the structures. Some results are limits rather than exact numbers.

Experiment [1] addresses T1, glucocorticoid receptors (Homo sapiens, UniProt P04150).
T1 sequence (P04150 1-777): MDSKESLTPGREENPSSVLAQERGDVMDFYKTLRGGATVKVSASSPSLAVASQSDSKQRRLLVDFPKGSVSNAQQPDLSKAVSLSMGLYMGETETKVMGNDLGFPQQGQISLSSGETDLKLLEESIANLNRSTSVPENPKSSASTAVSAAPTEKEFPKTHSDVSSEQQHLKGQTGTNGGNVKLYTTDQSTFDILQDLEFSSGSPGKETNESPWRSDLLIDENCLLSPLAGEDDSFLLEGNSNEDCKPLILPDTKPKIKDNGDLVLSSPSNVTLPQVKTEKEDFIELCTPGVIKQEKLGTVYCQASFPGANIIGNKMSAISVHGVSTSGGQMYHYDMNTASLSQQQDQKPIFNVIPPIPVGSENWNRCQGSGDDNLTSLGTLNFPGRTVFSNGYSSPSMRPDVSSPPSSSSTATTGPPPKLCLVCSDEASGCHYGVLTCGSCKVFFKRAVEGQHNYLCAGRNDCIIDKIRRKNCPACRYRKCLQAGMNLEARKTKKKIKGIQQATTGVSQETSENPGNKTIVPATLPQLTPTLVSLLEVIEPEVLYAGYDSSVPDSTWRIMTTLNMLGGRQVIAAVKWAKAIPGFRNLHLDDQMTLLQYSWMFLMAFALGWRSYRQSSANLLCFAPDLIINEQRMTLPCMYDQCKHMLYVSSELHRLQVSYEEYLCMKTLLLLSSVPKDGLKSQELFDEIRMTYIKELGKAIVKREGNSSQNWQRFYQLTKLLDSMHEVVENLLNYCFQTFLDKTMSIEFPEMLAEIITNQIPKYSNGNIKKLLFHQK
The experiment is described as follows: GR functional assay using SW1353/MMTV-5 cells (dexamethasone-induced luciferase). Set-up: contains endogenous glucocorticoid receptors; endogenous in cells; host or cells: SW1353/MMTV-5 (human chondrosarcoma, stably carrying the pMAMneo-Luc reporter). The experiment is classed as cell-based. Here is the method:
SW1353/MMTV-5 is an adherent human chondrosarcoma cell line that contains endogenous glucocorticoid receptors. It was transfected with a plasmid (pMAMneo-Luc) encoding firefly luciferase located behind a glucocorticoid-responsive element (GRE) derived from a viral promoter (long terminal repeat of mouse mammary tumor virus). A stable cell line SW1353/MMTV-5 was selected with geneticin, which was required to maintain this plasmid.
SW1353/MMTV-5 cells were distributed in 96-well plates and incubated in medium (without geneticin) for 24 hrs (in the absence of CO2).

Experiment [2] addresses T1, glucocorticoid receptors. Nature of the experiment: Glucocorticoid receptor binding displacement assay with 3H-dexamethasone. On the set-up: This GR was a full-length steroid hormone receptor; host or cells: recombinant baculovirus-infected insect cells. Here is the method:
The source of the receptor was recombinant baculovirus-infected insect cells. This GR was a full-length steroid hormone receptor likely to be associated with heat-shock and other endogenous proteins.
For the Primary Screen, test compounds were tested at 1 μM in duplicate. These compounds were diluted from 10 mM stock in 100% DMSO. After dilution to 100 μM, 5 μl were added to 245 μl assay buffer to obtained 2 μM compound and 2% DMSO.
For the IC50 determinations, test compounds were tested at 6 concentrations in duplicate (concentration range depends on % inhibition binding that was obtained in the Primary Screen). Test compounds were diluted from 10 mM stock in 100% DMSO. The tested solutions were prepared at 2× final assay concentration in 2% DMSO/assay buffer.
All reagents and the assay plate were kept on ice during the addition of reagents. […] After the additions, the incubation mixture was mixed and incubated for 2.5 hrs at 4° C.
After 2.5 hrs incubation, unbound counts were removed with dextran coated charcoal (DCC) as follows: 25 μl of DCC solution (10% DCC in assay buffer) was added to all wells and mixed (total volume 225 μl). The plate was centrifuged at 4000 rpm for 10 minutes at 4° C. 75 μl of the supernatants (i.e.⅓ of total volume) was carefully pipetted into an optiplate. 200 μl of scintillation cocktail were added (Microscint-40, Packard Bioscience. B.V.). The plate was vigorously shaken for approx. 10 minutes and counted on Topcount.
The IC50 values were converted to Ki (the inhibition constant) using the Cheng-Prusoff equation.
Reagents: Assay buffer: 10 mM potassium phosphate buffer pH 7.6 containing 5 mM DTT, 10 mM sodium molybdate, 100 μM EDTA and 0.1% BSA.

The mark [3] stands for this setting: Ki from IC50 by Cheng-Prusoff, 2.5 nM 3H-dexamethasone, read-out: GR Binding.
Setting [4] is: SW1353/MMTV-5 cells, antagonism of 50 nM dexamethasone, luciferase, read-out: GR Functional.

Consider `O=S(=O)(c1ccccc1)N1CCC2=Cc3c(cnn3-c3ccc(F)cc3)C[C@]2(CN2CCCC2)C1`, for which the Ki on glucocorticoid receptors [1] (read-out: GR Functional) and at glucocorticoid receptors [2] (setting [3]) was under 10 nM in each case.
In the case of `Cc1ccccc1S(=O)(=O)N1CCC2=Cc3c(cnn3-c3ccc(F)cc3)C[C@]2(CN2CCOCC2)C1`, the Ki is 10 to 100 nM at glucocorticoid receptors [1] (read-out: GR Functional) and under 10 nM on glucocorticoid receptors [2] (setting [3]).
In the same order, the values of `CC(C)(C)c1ccc(S(=O)(=O)N2CCC3=Cc4c(cnn4-c4ccc(F)cc4)C[C@]3(CO)C2)cc1` are 10 to 100 nM and under 10 nM.
Regarding `CC(C)(C)c1ccc(S(=O)(=O)N2CCC3=Cc4c(cnn4-c4ccc(S(N)(=O)=O)cc4)CC3(Cc3ccccc3)C2)cc1` (centres unmarked) [drawing 256], the Ki on glucocorticoid receptors [1] (setting [4]) is over 100 nM; at glucocorticoid receptors [2] (setting [3]) it was 10 to 100 nM.
For `Fc1ccc(CC23Cc4cnn(-c5ccc(F)cc5)c4C=C2CCN(Cc2cccnc2)C3)cc1` (centres unmarked), the Ki was over 100 nM at glucocorticoid receptors [1] and 10 to 100 nM at glucocorticoid receptors [2].
As to `COCC[C@]12Cc3cnn(-c4ccc(F)cc4)c3C=C1CCN(S(=O)(=O)c1ccc(C(C)(C)C)cc1)C2`, the Ki on glucocorticoid receptors [1] (read-out: GR Functional) and on glucocorticoid receptors [2] (setting [3]) was under 10 nM each time.
Turning to `CC(C)(C)c1ccc(S(=O)(=O)N2CCC3=Cc4c(cnn4-c4ccc(S(N)(=O)=O)cc4)CC3(Cc3ccccc3)C2)cc1` (centres unmarked) [drawing 240], the Ki on glucocorticoid receptors [1] (read-out: GR Functional) is over 100 nM; at glucocorticoid receptors [2] (setting [3]), 10 to 100 nM.
Taken in the same sequence, the figures for `COCCOC[C@]12Cc3cnn(-c4ccc(F)cc4)c3C=C1CCN(S(=O)(=O)N(C)C)C2` were over 100 nM and over 100 nM.
In the same order, the values of `Cc1ccc(S(=O)(=O)N2CCC3=Cc4c(cnn4-c4ccc(F)cc4)C[C@]3(CO)C2)cc1` are 10 to 100 nM and under 10 nM.
Consider `O=S(=O)(N1CCOCC1)N1CCC2=Cc3c(cnn3-c3ccc(F)cc3)CC2(Cc2ccc(F)cc2)C1` (centres unmarked), for which the Ki on glucocorticoid receptors [1] was over 100 nM; on glucocorticoid receptors [2] it was 10 to 100 nM.
For the compound `Cc1ccc(-n2ncc3c2C=C2CCN(S(=O)(=O)c4ccc(C(C)(C)C)cc4)C[C@@]2(Cc2ccccc2)C3)cc1`, the Ki is over 100 nM on glucocorticoid receptors [1] (read-out: GR Functional) and under 10 nM at glucocorticoid receptors [2] (setting [3]).
Consider `CN1CCOc2cc(S(=O)(=O)N3CCC4=Cc5c(cnn5-c5ccc(F)cc5)CC4(Cc4ccc(F)cc4)C3)ccc21` (centres unmarked), for which the Ki on glucocorticoid receptors [1] (read-out: GR Functional) and at glucocorticoid receptors [2] (setting [3]) was under 10 nM each time.
Take `CCN(CC)C[C@]12Cc3cnn(-c4ccc(F)cc4)c3C=C1CCN(S(=O)(=O)c1ccc(OC)cc1)C2`: the figures for the Ki at glucocorticoid receptors [1] (read-out: GR Functional) and at glucocorticoid receptors [2] (setting [3]) were 10 to 100 nM and under 10 nM, respectively.
In the same order, the values of `CS(=O)(=O)N1CCC2=Cc3c(cnn3-c3ccc(F)cc3)CC2(Cc2ccc(F)cc2)C1` (centres unmarked) are over 100 nM and 10 to 100 nM.
Turning to `CN(CCO)C[C@]12Cc3cnn(-c4ccc(F)cc4)c3C=C1CCN(S(=O)(=O)c1ccc(C(C)(C)C)cc1)C2`, the Ki on glucocorticoid receptors [1] (read-out: GR Functional) and at glucocorticoid receptors [2] (setting [3]) was under 10 nM each time.
Regarding `COC(=O)[C@]12Cc3cnn(-c4ccc(F)cc4)c3C=C1CCN(S(=O)(=O)c1ccc(C(C)(C)C)cc1)C2`, the results for the Ki on glucocorticoid receptors [1] (read-out: GR Functional) and on glucocorticoid receptors [2] (setting [3]) were 10 to 100 nM and under 10 nM, respectively.
In the case of `CC(C)(C)c1ccc(S(=O)(=O)N2CCC3=Cc4c(cnn4Cc4cccc(O)c4)CC3(Cc3ccccc3)C2)cc1` (centres unmarked) [drawing 241], the Ki at glucocorticoid receptors [1] (read-out: GR Functional) and at glucocorticoid receptors [2] (setting [3]) was over 100 nM throughout.
As for `O=S(=O)(c1ccc(F)cc1)N1CCC2=Cc3c(cnn3-c3ccc(F)cc3)C[C@]2(CO)C1`, the Ki at glucocorticoid receptors [1] (read-out: GR Functional) was over 100 nM; on glucocorticoid receptors [2] (setting [3]), under 10 nM.
In the same order, the values of `CC(C)(C)S(=O)(=O)N1CCC2=Cc3c(cnn3-c3ccc(F)cc3)C[C@]2(C)C1` are over 100 nM and over 100 nM.
Taken in the same sequence, the figures for `O=S(=O)(c1ccccc1)N1CCC2=Cc3c(cnn3-c3ccc(F)cc3)C[C@]2(COCCO)C1` were 10 to 100 nM and under 10 nM.
Taken in the same sequence, the figures for `CC(C)(C)c1ccc(S(=O)(=O)N2CCC3=Cc4c(cnn4-c4ccc(F)cc4)C[C@]3(CCO)C2)cc1` were 10 to 100 nM and under 10 nM.
Take `COC[C@]12Cc3cnn(-c4ccc(F)cc4)c3C=C1CCN(S(=O)(=O)c1ccccc1)C2`: the Ki on glucocorticoid receptors [1] (read-out: GR Functional) was 10 to 100 nM; on glucocorticoid receptors [2] (setting [3]), under 10 nM.
In the case of `CCCCS(=O)(=O)N1CCC2=Cc3c(cnn3-c3ccc(F)cc3)C[C@]2(CN2CCOCC2)C1`, the Ki at glucocorticoid receptors [1] (read-out: GR Functional) is over 100 nM; on glucocorticoid receptors [2] (setting [3]), 10 to 100 nM.
With `COc1ccc(CC23Cc4cnn(-c5ccc(F)cc5)c4C=C2CCN(Cc2ccccc2)C3)cc1` (centres unmarked) [drawing 244], the results for the Ki on glucocorticoid receptors [1] (read-out: GR Functional) and on glucocorticoid receptors [2] (setting [3]) were over 100 nM and under 10 nM, respectively.
Taken in the same sequence, the figures for `Cc1ccc(S(=O)(=O)N2CCC3=Cc4c(cnn4-c4ccc(F)cc4)C[C@]3(CN3CCCC3)C2)cc1` were under 10 nM and under 10 nM.
Turning to `CC(C)(C)c1ccc(S(=O)(=O)N2CCC3=Cc4c(cnn4-c4ccncc4)C[C@]3(C)C2)cc1`, the Ki on glucocorticoid receptors [1] (read-out: GR Functional) was over 100 nM; at glucocorticoid receptors [2] (setting [3]), under 10 nM.
Take `COc1ccc(CC23Cc4cnn(-c5ccc(F)cc5)c4C=C2CCN(Cc2ccccc2)C3)cc1` (centres unmarked) [drawing 260]: the Ki on glucocorticoid receptors [1] (setting [4]) is over 100 nM; on glucocorticoid receptors [2] (setting [3]) it was under 10 nM.
As for `CC(C)n1ncc2c1C=C1CCN(S(=O)(=O)c3ccc(C(C)(C)C)cc3)C[C@@]1(CN1CCCCC1)C2`, the Ki on glucocorticoid receptors [1] (read-out: GR Functional) is 10 to 100 nM; on glucocorticoid receptors [2] (setting [3]), under 10 nM.
Taken in the same sequence, the figures for `COC[C@]12Cc3cnn(-c4ccc(F)cc4)c3C=C1CCN(S(=O)(=O)c1ccc(C(C)(C)C)cc1)C2` were under 10 nM and under 10 nM.
In the same order, the values of `COCCOC[C@]12Cc3cnn(-c4ccc(F)cc4)c3C=C1CCN(S(=O)(=O)c1ccc(F)cc1)C2` are under 10 nM and under 10 nM.
Taken in the same sequence, the figures for `CCCCn1ncc2c1C=C1CCN(S(=O)(=O)c3ccc(C(C)(C)C)cc3)C[C@@]1(CN(C)C)C2` were over 100 nM and 10 to 100 nM.
Regarding `CC(C)(C)c1ccc(S(=O)(=O)N2CCC3=Cc4c(cnn4-c4ccc(F)cc4)C[C@]3(Cc3ccccc3)C2)cc1`, the Ki at glucocorticoid receptors [1] (read-out: GR Functional) and on glucocorticoid receptors [2] (setting [3]) was under 10 nM each time.
With `Cc1ccc(S(=O)(=O)N2CCC3=Cc4c(cnn4-c4ccc(F)cc4)C[C@]3(CN(C)C)C2)cc1`, the Ki is 10 to 100 nM at glucocorticoid receptors [1] (read-out: GR Functional) and under 10 nM on glucocorticoid receptors [2] (setting [3]).
In the same order, the values of `Fc1ccc(-n2ncc3c2C=C2CCN(Cc4ccccc4)CC2(Cc2ccccc2)C3)cc1` (centres unmarked) [drawing 242] are over 100 nM and 10 to 100 nM.
Turning to `CC(C)(C)c1ccc(S(=O)(=O)N2CCC3=Cc4c(cnn4-c4ccc(F)cc4)C[C@]3(C(=O)N3CCOCC3)C2)cc1`, the Ki on glucocorticoid receptors [1] (read-out: GR Functional) is over 100 nM; at glucocorticoid receptors [2] (setting [3]), 10 to 100 nM.
`CN(C)C[C@]12Cc3cnn(-c4ccc(F)cc4)c3C=C1CCN(S(=O)(=O)c1ccc(F)cc1)C2`: the Ki at glucocorticoid receptors [1] (read-out: GR Functional) is 10 to 100 nM; at glucocorticoid receptors [2] (setting [3]), under 10 nM.
Taken in the same sequence, the figures for `CC(C)(C)c1ccc(S(=O)(=O)N2CCC3=Cc4c(cnn4CC(F)(F)F)C[C@]3(CN3CCCC3)C2)cc1` were over 100 nM and 10 to 100 nM.
In the same order, the values of `CC(O)[C@]12Cc3cnn(-c4ccc(F)cc4)c3C=C1CCN(S(=O)(=O)c1ccc(C(C)(C)C)cc1)C2` (some centres unmarked) are 10 to 100 nM and under 10 nM.
Taken in the same sequence, the figures for `O=S(=O)(c1ccc(F)cc1)N1CCC2=Cc3c(cnn3-c3ccc(F)cc3)C[C@]2(CN2CCCC2)C1` were under 10 nM and under 10 nM.
As to `COC[C@]12Cc3cnn(-c4ccc(F)cc4)c3C[C@@H]1CCN(S(=O)(=O)c1ccc(C(C)(C)C)cc1)C2`, the Ki is over 100 nM at glucocorticoid receptors [1] (read-out: GR Functional) and under 10 nM on glucocorticoid receptors [2] (setting [3]).
